{
  "source": "patent US5760235A",
  "about": "“Anticoagulant peptide derivatives and pharmaceutical compositions containing the same as well as a process for preparation thereof” (Gyogyszerkutato Intezet Kft., priority 1992, dated 1998)",
  "key": {"[1]": {"test_system": "citrated blood plasma", "test": "In vitro activated partial thromboplastin time (APTT), citrated blood plasma", "format": "biochemical, human", "parameters": "unit not given here", "procedure": "(§1) The antithrombin activity of the compounds of general formula (I) was determined by the usual method [Bagdy et al.: Thromb Haemostas 67, 325-330 (1992)] by measuring whole blood clotting time (WBCT), thrombin time (TT) and activated partial thromboplastin time (APTT). The in vitro activity of some compounds of the invention assayed on native human blood (non-anticoagulated clotting) (WBCT) and on citrated blood plasma (TT and APTT) is presented in Table 1.\n(§2) ^2 WBCT = whole blood clotting time, TT = thrombin time, APTT =\n(§3) activated partial thromboplastin time parameter. The figures represent\n(§4) concentrations of the compounds required to double the clotting time of\n(§5) native whole human blood or of citrated blood plasma."}, "[2]": {"test_system": "fibrinolysis induced by tissue plasminogen activator", "test": "Fibrinolysis induced by tissue plasminogen activator, thromboelastogram", "format": "biochemical", "excerpt": "The compounds of the general formula (I) inhibit clot formation without interfering with the natural lysis of blood clots in the body, e.g. fibrinolysis. […] Thromboelastography. In: Bang N. U., F. K. Beller, E. Deutsch, E. F. Mamman eds. Thrombosis and Bleeding Disorders. Theory and Methods. Academic Press, London, 1971: 70-76]."}, "[3]": {"test_system": "native whole human blood", "test": "In vitro whole blood clotting time (WBCT), native human blood", "format": "biochemical", "parameters": "unit not given here", "procedure": "as §1, §2, §3, §4, §5"}, "[4]": {"test_system": "citrated blood plasma", "test": "In vitro thrombin time (TT), citrated blood plasma", "format": "biochemical, human", "parameters": "unit not given here", "procedure": "as §1, §2, §3, §4, §5"}},
  "data": [
    {"smiles": "N=C(N)NCCC[C@@H](C=O)NC(=O)[C@H]1CCCN1C(=O)C(O)C1CCCCC1.N=C(N)NCCC[C@@H](C=O)NC(=O)[C@H]1CCCN1C(=O)C(O)C1CCCCC1.O=S(=O)(O)O", "note": "(stereo partly drawn) [Example 8, D-2-Cyclohexyl-2-hydroxyacetyl-L-prolyl-L-arginine aldehyde hemisulfate]", "values": [
      {"measurement": "APTT: concentration required to double the clotting time", "setting": "[1]", "value": 0.35},
      {"measurement": "inhibitory effect on fibrinolysis induced by tissue plasminogen activator", "setting": "[2]", "value": "only negligible inhibitory effect"},
      {"measurement": "WBCT: concentration required to double the clotting time", "setting": "[3]", "value": 0.72},
      {"measurement": "TT: concentration required to double the clotting time", "setting": "[4]", "value": 0.100}
    ]},
    {"smiles": "N=C(N)NCCC[C@@H](C=O)NC(=O)[C@@H]1CCCN1C(=O)[C@H](O)C(c1ccccc1)c1ccccc1.N=C(N)NCCC[C@@H](C=O)NC(=O)[C@@H]1CCCN1C(=O)[C@H](O)C(c1ccccc1)c1ccccc1.O=S(=O)(O)O", "note": "[Example 12, 3,3-Diphenyl-D-lactyl-L-prolyl-L-arginine aldehyde hemisulfate]", "values": [
      {"measurement": "APTT: concentration required to double the clotting time", "setting": "[1]", "value": 0.12},
      {"measurement": "WBCT: concentration required to double the clotting time", "setting": "[3]", "value": 0.52},
      {"measurement": "TT: concentration required to double the clotting time", "setting": "[4]", "value": 0.077}
    ]},
    {"smiles": "N=C(N)NCCC[C@@H](C=O)NC(=O)[C@H]1CCCN1C(=O)C(O)c1ccc2ccccc2c1.N=C(N)NCCC[C@@H](C=O)NC(=O)[C@H]1CCCN1C(=O)C(O)c1ccc2ccccc2c1.O=S(=O)(O)O", "note": "(stereo partly drawn) [Example 13, D-2-(2-Naphthyl)-2-hydroxyacetyl-L-prolyl-L-arginine aldehyde hemisulfate]", "values": [
      {"measurement": "APTT: concentration required to double the clotting time", "setting": "[1]", "value": 1.00},
      {"measurement": "WBCT: concentration required to double the clotting time", "setting": "[3]", "value": 1.13},
      {"measurement": "TT: concentration required to double the clotting time", "setting": "[4]", "value": 0.100}
    ]},
    {"smiles": "N=C(N)NCCC[C@@H](C=O)NC(=O)[C@H]1CCCN1C(=O)C(O)c1cccc2ccccc12.N=C(N)NCCC[C@@H](C=O)NC(=O)[C@H]1CCCN1C(=O)C(O)c1cccc2ccccc12.O=S(=O)(O)O", "note": "(stereo partly drawn) [Example 14, D-2-(1-Naphthyl)-2-hydroxyacetyl-L-prolyl-L-arginine aldehyde hemisulfate]", "values": [
      {"measurement": "APTT: concentration required to double the clotting time", "setting": "[1]", "value": 0.52},
      {"measurement": "WBCT: concentration required to double the clotting time", "setting": "[3]", "value": 1.04},
      {"measurement": "TT: concentration required to double the clotting time", "setting": "[4]", "value": 0.150}
    ]}
  ]
}
